Earlier results, collected in patent US20240239814A1, “Complexes Of CU(I) As Antitumor Agents” (priority 2021, published 2024).

Experiments:
[1] = compared with CDDP; cited from earlier work
[2] = cited from earlier work
Lewis Lung Carcinoma = conditions: different schedules, compared with CDDP; cited from earlier work
[3] = test system: human non transformed cells; conditions: average IC50 normal cells / average IC50 malignant cells; cited from earlier work
[4] = test system: panel of human cancer cells; conditions: 2D monolayer, cited from earlier work
[5] = test system: HCT-15 colon cancer spheroids; conditions: HCT-15 spheroids; cited from earlier work
proteasome = conditions: cited from earlier work
[6] = test system: human cancer cell lines endowed with acquired or natural resistance to CDDP or to OXP; conditions: fold lower IC50 in resistant cell lines; cited from earlier work
[7] = test system: human colorectal cancer xenografts; conditions: oxaliplatin-sensitive and resistant models; cited from earlier work
[8] = animals of the Lewis Lung Carcinoma model; cited from earlier work
[9] = test system: LoVo colon cancer spheroids; conditions: cited from earlier work

In the case of `F[P-](F)(F)(F)(F)F.OCP(CO)CO.OCP(CO)CO.OCP(CO)CO.OCP(CO)CO.[Cu+]` [[Cu(thp)4][PF6]], the “median lethal doses (LD50) and maximum tolerated doses (MTD)” value [1] is given as “significantly higher that those recorded with CDDP”, the “solubility and stability in water solution” value [2] is given as “highly soluble and stable in water solution” and the “inhibition of proliferation of tumor cell population in vivo” value (Lewis Lung Carcinoma) is given as “superior to that induced by the gold-standard drug CDDP”. The “selectively index relative to CDDP” value [3] was “about 30 times”, the “selectively index relative to OXP” value [3] was 3 times and the “cytotoxicity relative to CDDP” value ([4]; fold more cytotoxic than CDDP) was “up to 50 fold”. The “cytotoxicity relative to OXP” value ([4]; fold more cytotoxic than OXP) was at most 30 fold, the “IC50 relative to OXP” value [5] was “very similar to those of OXP” and the “effect on proteolytic activities of proteasome” value (proteasome) was “inhibit the proteolytic activities of proteasome”. For the same compound, the “IC50 relative to the reference metallodrugs” value [6] was “up to 35 fold”, the “efficacy of chemotherapy in xenografts” value [7] was “extremely effective in both oxaliplatin-sensitive and resistant models” and the “clinical signs of toxicity” value [8] was “no clinical signs of toxicity and no anorexia”. The “IC50 relative to OXP” value [9] was “very similar to those of OXP”.
